{"source": "ChEMBL document CHEMBL2177061", "about": "“Factors influencing the specificity of inhibitor binding to the human and malaria parasite dihydroorotate dehydrogenases” (J Med Chem, 2012)", "key": {"Homo sapiens [1]": {"species": "Homo sapiens", "assay": "Ratio of IC50 for human […] dehydrogenase H56A mutant to IC50 for human wild type […] dehydrogenase"}, "Homo sapiens [2]": {"species": "Homo sapiens", "assay": "Ratio of IC50 for human dihydrofolate dehydrogenase Y147F mutant to IC50 for human wild type dihydrofolate dehydrogenase"}, "[3]": {"test_system": "T1, Dihydroorotate dehydrogenase (quinone), mitochondrial (Plasmodium falciparum (isolate 3D7)), Q08210 [C276A]", "T1 sequence (whole entry)": "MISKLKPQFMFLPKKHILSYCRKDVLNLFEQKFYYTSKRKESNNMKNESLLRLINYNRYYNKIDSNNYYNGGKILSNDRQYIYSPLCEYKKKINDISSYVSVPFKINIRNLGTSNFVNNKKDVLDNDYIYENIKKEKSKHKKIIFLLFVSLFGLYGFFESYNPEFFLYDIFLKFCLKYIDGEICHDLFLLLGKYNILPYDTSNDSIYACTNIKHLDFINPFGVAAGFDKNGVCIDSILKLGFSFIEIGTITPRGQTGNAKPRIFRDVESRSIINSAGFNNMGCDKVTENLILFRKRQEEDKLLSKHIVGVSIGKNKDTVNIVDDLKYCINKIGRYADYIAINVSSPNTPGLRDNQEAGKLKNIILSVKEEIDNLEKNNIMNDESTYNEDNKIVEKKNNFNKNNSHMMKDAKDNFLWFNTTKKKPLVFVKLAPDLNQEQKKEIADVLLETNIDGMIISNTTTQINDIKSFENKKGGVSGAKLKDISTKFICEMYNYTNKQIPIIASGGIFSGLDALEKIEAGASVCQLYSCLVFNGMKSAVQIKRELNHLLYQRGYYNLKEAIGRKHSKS", "assay": "Inhibition of Plasmodium falciparum […] dehydrogenase C276A mutant expressed in Escherichia coli BL21(DE3) using […] as substrate at 100 uM by DCIP-based colorimetric analysis"}, "[4]": {"target": "Dihydroorotate dehydrogenase (quinone), mitochondrial (Homo sapiens, UniProt Q02127)", "sequence (Q02127 whole entry)": "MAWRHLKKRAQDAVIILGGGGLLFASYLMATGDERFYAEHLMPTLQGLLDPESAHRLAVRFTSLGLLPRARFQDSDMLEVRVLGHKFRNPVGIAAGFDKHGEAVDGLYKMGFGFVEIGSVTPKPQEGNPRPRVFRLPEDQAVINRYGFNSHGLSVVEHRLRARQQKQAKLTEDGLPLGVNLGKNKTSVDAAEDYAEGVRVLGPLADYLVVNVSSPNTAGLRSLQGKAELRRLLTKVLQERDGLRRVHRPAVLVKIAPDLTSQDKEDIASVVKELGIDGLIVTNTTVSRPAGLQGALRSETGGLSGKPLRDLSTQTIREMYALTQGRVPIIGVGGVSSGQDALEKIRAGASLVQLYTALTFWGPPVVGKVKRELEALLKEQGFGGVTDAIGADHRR", "assay": "Inhibition of human […] dehydrogenase expressed in Escherichia coli BL21(DE3) using […] as substrate by DCIP-based colorimetric analysis"}, "[5]": {"test_system": "T2, Dihydroorotate dehydrogenase (quinone), mitochondrial (Plasmodium falciparum (isolate 3D7)), Q08210 [C276F]", "T2 sequence (whole entry)": "T1 sequence (whole entry) with A276F", "assay": "Inhibition of Plasmodium falciparum […] dehydrogenase C276F mutant expressed in Escherichia coli BL21(DE3) using […] as substrate at 100 uM by DCIP-based colorimetric analysis"}, "[6]": {"target": "T3, Dihydroorotate dehydrogenase (Plasmodium falciparum, UniProt Q54A96)", "T3 sequence (Q54A96 whole entry)": "T1 sequence (whole entry) with A276C", "assay": "Inhibition of Plasmodium falciparum […] dehydrogenase expressed in Escherichia coli BL21(DE3) using […] as substrate by DCIP-based colorimetric analysis"}, "[7]": {"test_system": "T4, Dihydroorotate dehydrogenase (quinone), mitochondrial (Plasmodium falciparum (isolate 3D7)), Q08210 [H185A]", "T4 sequence (whole entry)": "T1 sequence (whole entry) with H185A, A276C", "assay": "Inhibition of Plasmodium falciparum […] dehydrogenase H185A mutant expressed in Escherichia coli BL21(DE3) using […] as substrate at 100 uM by DCIP-based colorimetric analysis"}}, "note": "Where a chain is given by its changes, count along the chain named."}
{"smiles": "CCc1cc(O)n2nc(SCc3cc(Cl)ccc3Cl)nc2n1", "values": [{"measurement": "Ratio IC50", "setting": "Homo sapiens [1]", "result": 17}, {"measurement": "Ratio IC50", "setting": "Homo sapiens [2]", "result": 1.9}, {"measurement": "inhibition", "setting": "[3]", "result": "< 50", "unit": "%"}, {"measurement": "IC50", "setting": "[4]", "result": 0.013, "unit": "µM"}, {"measurement": "inhibition", "setting": "[5]", "result": "< 50", "unit": "%"}, {"measurement": "IC50", "setting": "[6]", "result": "> 100", "unit": "µM"}, {"measurement": "inhibition", "setting": "[7]", "result": "< 50", "unit": "%"}]}
